Measurements reported in patent publication US20020044943A1, “MUC-1 as an immunosuppressive therapeutic agent for the treatment of inflammatory and autoimmune conditions” (priority 1997, published 2002).

Legend:
[1] = target: T1, recombinant human ICAM-1-Ig fusion protein (Homo sapiens, UniProt P05362); test: Tumor cell-immobilized ICAM-1 adhesion assay; type: cell-based; settings: antibodies 10 or 20 ug/mL, soluble MUC-1 10 ug/mL
T1 construct: coated with 50 uL of a solution with 20 ug/mL recombinant soluble ICAM-1 in PBS; Ig (immunoglobulin) fusion partner
T1 sequence (P05362 28-480 limits assumed): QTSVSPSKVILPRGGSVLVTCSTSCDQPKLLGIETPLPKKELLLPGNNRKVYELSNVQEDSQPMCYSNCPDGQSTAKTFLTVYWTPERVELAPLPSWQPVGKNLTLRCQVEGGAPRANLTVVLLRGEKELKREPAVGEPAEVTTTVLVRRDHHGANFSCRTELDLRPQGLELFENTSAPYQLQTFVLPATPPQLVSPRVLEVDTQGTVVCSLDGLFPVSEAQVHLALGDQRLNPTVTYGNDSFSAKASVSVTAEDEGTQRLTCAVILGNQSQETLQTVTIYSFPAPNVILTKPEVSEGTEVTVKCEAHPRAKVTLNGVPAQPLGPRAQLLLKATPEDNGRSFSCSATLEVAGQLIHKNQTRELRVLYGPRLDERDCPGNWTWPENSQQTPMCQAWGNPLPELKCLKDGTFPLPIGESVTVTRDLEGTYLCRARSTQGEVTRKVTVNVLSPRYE
Experimental: 96 well tissue culture plates were coated with 50 uL of a solution with 20 ug/mL recombinant soluble ICAM-1 in PBS for 1 hr at room temperature. Wells were then blocked with 1% BSA for 2 hr at 37 C. and washed four times with PBS. Antibodies (10 ug/mL) (anti-ICAM-1 164B, 18E3D, 84H10, anti-E selectin 1.2B6) and soluble MUC-1 (10 ug/mL) were added to the wells for 90 min. at room temperature. Wells were then washed again before addition of cells. BCECF labeled tumor cells were pretreated +/− 20 ug/mL of anti-MUC-1 (B27.29, or DF3P) and were then added to the appropriate wells for 40 min. at 37 C. Wells were then washed and percent adhesion was then determined as described in the tumor cell—endothelial cell adhesion assay.
To exclude the possibility that adhesion was being mediated by endothelial molecules other than ICAM-1, the adhesion of the MUC-1 transfectants was studied using immobilized recombinant human ICAM-1-Ig fusion protein. Adhesion was compared to Bovine Serum Albumin and Collagen type I as controls.

Purified T cells = test: T cell proliferation assay (allo MLR, 3H-thymidine incorporation); type: cell-based, human; settings: 10 ug/ml, allo PBL stimulated T cells
Experimental: Enriched T cell populations were purified from buffy coats obtained from normal red cross donors using nylon wool columns by previously reported procedures. […] For the allo MLR, mitomycin C treated allogeneic PBLs were cocultured with purified T cells in the presence or absence of affinity purified MUC-1 mucin or control OSM. In most of the experiments, the T cells were cultured 6-7 days in AIM V medium in the absence or presence of MUC-1, MUC-1 derivative or OSM at the indicated concentration. After this time, the T cells were harvested, washed and cultured as indicated.
Purified T cells (10^6/ml) were cultured in AIM V medium with allo PBLs in the absence or presence of MUC-1, MUC-1 derivative or OSM 10 ug/ml for 6-7 days. T cells were harvested and plated in 96 well flat bottom plates at 10^5/well with allo PBLs (10^5/well), in the presence or absence of affinity purified MUC-1, MUC-1 derivative or OSM. Control cultures were treated with either 50 U/ml IL-2 or 1 ug/ml anti-CD28 Mab. After 4 days of culture, ^3H-thymidine (1 uCi/well) was added. The cells were harvested on the fifth day and ^3H-thymidine incorporation was measured by liquid scintillation.
Synthetic peptides, as described in Example 8, corresponding to 3, 4, 5 or 6 MUC-1 repeats, were added at 10 ug/ml to allo cultures and T cell proliferation was measured at 14 days from the start of culture. […]

GZ-Hi tumor cells = test: Tumor take after i.v. MUC-1 mucin and subcutaneous tumor challenge; type: in vivo; settings: CB6 mice, MUC-1 mucin 20 micrograms i.v. on days -2, +2, +6; 1x10^6 GZ-Hi cells s.c.; observed 8 weeks
Experimental: The procedures employed in this example are similar to those described in Fung, et al. Cancer Research 51:1170-1176 (1991), which is hereby incorporated by reference. However, in the present example, the human MUC-1 system was used instead of the epiglycanin system.
CB6 mice were injected intravenously with MAb B27.29 affinity purified MUC-1 mucin (20 micrograms each treatment or approximately 400 units) prior to (day-2) and after (days +2 and +6) an attempted tumor challenge. Affinity purified mucin had been prepared by affinity adsorption on a B 27.29 CnBr-Sepharose matrix from a pleural effusion fluid obtained from a patient with adenocarcinoma of the ovaries. MUC-1 mucin treated and control mice were challenged with 1×10^6 GZ-Hi tumor cells injected into the subcutaneous space along the flank. Mice were observed by palpation and visual inspection at the injection site for the occurrence of tumors over a period of 8 weeks.

human T-cell cultures = test: Mixed lymphocyte reaction (allo-antigenic T-cell proliferation); type: cell-based; settings: B27.29 affinity purified MUC-1 mucin, various doses, in vitro
Experimental: The mixed lymphocyte reaction is conducted by mixing the lymphocytes of HLA disparate individuals in in vitro tissue cultures. The “responder population” in this experiment is purified T-cells from one population, while the “stimulator” population in this experiment is the adherent antigen presenting cells obtained from an HLA mismatched individual donor. The two cell populations were mixed and cultured either in the presence or absence of various doses of B27.29 affinity purified MUC-1 mucin that was purified from a pleural effusion fluid.

inhibition of GZHi adhesion to immobilized ICAM-1 [1]: equally effective at blocking adhesion
Substance: MUC-1: MAb B27.29 affinity purified human MUC-1 mucin from pleural effusion or ascites fluid of cancer patients
reduction of T cell proliferation relative to control (Purified T cells): inhibition of T cell proliferation
% Tumor Take (GZ-Hi tumor cells): 100%
inhibition of T-cell proliferation against a strong allo-antigenic stimulus (human T-cell cultures): strongly inhibits
